Measurements: patent US7425568B2, “Compounds, which are potent inhibitors of Na+ /Ca2+ exchange mechanism and are useful in the treatment of arrhythmias” (Orion Corporation, priority 2001, dated 2008)

Test system: ouabain-induced arrhythmias in guinea-pig papillary muscles
Assay: Inhibition of ouabain-induced arrhythmias (aftercontractions) in isolated guinea-pig papillary muscles
Conditions: for maximum amplitude of aftercontractions #1: n=5, vehicle 143±54 mg
Description: The effects of the compounds of the invention were tested on ouabain-induced arrhythmias in guinea-pig papillary muscles.
Guinea-pig papillary muscles were mounted into horizontal muscle cuvette. A hook connected to force transducer was attached to another end of the muscle. Muscle preparations were electrically paced at 1 Hz with field stimulation via platinum electrodes. Modified Tyrode solution was used for superfusion of muscle preparations. The composition of the Tyrode solution was the following (mM): NaCl 135, MgCl2×6H2O 1, KCl 5, CaCl2×2H2O 2, NaHCO3 15, Na2HPO4×2H2O 1, and glucose 10. The Tyrode solution was gassed with carbogen (95% O2, 5% CO2) to set pH at 7.4. Experiments were carried out at 37° C. Acquisition and analysis of twitch tensions with Action Potential and Force Measurement System (ACFO v1.0, Fision Ltd, Finland).
Ouabain by blocking of sodium-potassium ATPase increase intracellular sodium which is changed for calcium via NCX. Increased intracellular calcium is leading to overload of sarcoplasmic reticulum (SR) and spontaneous calcium release from SR inducing delayed […] (DADs). Equivalence for DADs in force signal is aftercontractions (ACs) which are seen as spontaneous twitches after the pacing controlled twitch.
The compounds of the invention delayed appearance and decreased amplitude of aftercontractions.

Row | Compound | appearance of aftercontractions (time to appearance) (30 μM, mean±SD, n=5, vehicle 25±8.9 min, p=0.013, paced at 1 Hz, 37° C) | maximum amplitude of aftercontractions #1 (30 μM, p=0.008) | maximum amplitude of aftercontractions #1 (10 μM, p=0.027)
1 | CC(=O)Nc1ccc(Oc2ccc3c(c2)CCC(c2ccccc2)O3)nc1 (stereo not drawn) [Example 27] | 38 ± 7.5 min | 74 ± 16 mg | 
2 | CS(=O)(=O)Nc1ccc(Oc2ccc3c(c2)CCC(c2cccc(F)c2)O3)nc1 (stereo not drawn) [Example 67, N-{6-[2-(3-Fluorophenyl)chroman-6-yloxy]pyridin-3-yl}methane Sulfonamide] |  |  | 88 ± 20 mg
